The test deals with Proprotein convertase subtilisin/kexin type 9 (Homo sapiens, UniProt Q8NBP7). Nature of the test: PCSK9 Inhibition Assay. On the procedure:
For the peptide affinity determinations, biotinylated PCSK9 was immobilized to NeutrAvidin-coated MaxiSorp Immuno-Plates and incubated with a mixture of serially diluted synthetic peptide (Pep2-2 or Pep2 at 0-100 μM) and the correspondingpeptide-displaying phage at the earlier determined subsaturating concentration (see above). After a 1-h incubation in PBT buffer (PBS, 0.5% BSA, 0.05% Tween 20), the plate was washed extensively, and the bound phage was detected by anti-M13-HRP. The data were fitted to a four-parameter equation (KaleidaGraph) to determine the IC50 values. For IC50 measurements of the Pep2-2 derivatives (Fig. 1C) and for the truncated Pep2-8 peptides (Table 1), we used the peptides in a concentration range of 0-250 μM and the Pep2-2-displaying phage at subsaturating concentrations.

These results are taken from BindingDB's records for doi:10.1074/jbc.M113.514067 (Genentech, 2014).

Proprotein convertase subtilisin/kexin type 9, sequence (Q8NBP7 31-152 limits assumed): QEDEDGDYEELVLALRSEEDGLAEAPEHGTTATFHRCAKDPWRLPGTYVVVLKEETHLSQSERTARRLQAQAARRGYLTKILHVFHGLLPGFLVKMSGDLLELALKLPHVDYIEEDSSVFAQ
Proprotein convertase subtilisin/kexin type 9, sequence (Q8NBP7 153-692 limits assumed): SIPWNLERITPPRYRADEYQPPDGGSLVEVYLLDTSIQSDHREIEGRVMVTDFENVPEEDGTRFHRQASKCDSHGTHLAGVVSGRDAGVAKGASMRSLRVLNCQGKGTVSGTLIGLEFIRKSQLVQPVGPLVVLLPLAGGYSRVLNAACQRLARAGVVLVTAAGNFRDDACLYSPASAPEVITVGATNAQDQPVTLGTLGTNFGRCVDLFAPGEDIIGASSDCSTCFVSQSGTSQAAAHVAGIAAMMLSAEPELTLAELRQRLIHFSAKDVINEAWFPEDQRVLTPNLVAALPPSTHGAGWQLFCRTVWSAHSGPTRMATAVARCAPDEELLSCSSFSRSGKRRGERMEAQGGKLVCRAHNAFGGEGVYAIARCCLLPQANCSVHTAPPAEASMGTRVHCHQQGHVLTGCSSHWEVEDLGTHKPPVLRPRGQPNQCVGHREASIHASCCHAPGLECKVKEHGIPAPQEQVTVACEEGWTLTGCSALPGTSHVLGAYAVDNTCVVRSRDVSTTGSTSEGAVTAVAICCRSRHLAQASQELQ

A word on the IC50: it is the point on the concentration scale where inhibition reaches its midpoint. A high value points to weaker potency in that assay. Molecule `CC(=O)N[C@H](C(=O)N[C@H](C(=O)N[C@@H](Cc1ccccc1)C(=O)N[C@H](C(=O)N[C@@H](CO)C(=O)N[C@@H](Cc1c[nH]c2ccccc12)C(=O)N[C@@H](CCC(=O)O)C(=O)N[C@@H](CCC(=O)O)C(=O)N[C@@H](Cc1ccc(O)cc1)C(=O)N[C@@H](CC(C)C)C(=O)N[C@@H](CC(=O)O)C(=O)N[C@@H](Cc1c[nH]c2ccccc12)C(=O)N[C@H](C(N)=O)C(C)C)[C@@H](C)O)C(C)C)[C@@H](C)O` [TVFTSWEEYLDWV] registered an IC50 of 1.4 µM.
Ac-TVFTSWEEYL-NH2 [TVFTSWEEYL] had an IC50 of 17.6 µM.
Then Ac-TVFTSWEEYLL-NH2 [TVFTSWEEYLL], with 10 µM; and Ac-TVFTSWEEYLLW-NH2 [TVFTSWEEYLLW], with 6.2 µM; and Ac-TVFTSWEEYLLWV-NH2 [TVFTSWEEYLLWV], with 0.76 µM.
With Ac-VFTSWEEYLLWV-NH2 [VFTSWEEYLLWV] the figure was 4 µM; with Ac-VVFTSWQDYLFWV-NH2 [VVFTSWQDYLFWV], 37.7 µM.
